Where two headings read alike, the source gives them in different places.
How the values were obtained:
[1] = system: TNFα; assay: Measurement of LPS Induced-TNFα in THP-1 Cells; assay type: cell-based, human
Experimental: The lipid peroxidation assay method of Ohkawa, H.; Ohishi, N.; Yaki, K. Anal. Biochem. 1979, 95, 351 was used to evaluate […]. […] […] Cells were collected and spun at 1500 g for 10 minutes. Supernatant was collected and analyzed for TNFα.
Mean Percent Inhibition of TNF-alpha by compounds of the present invention is set forth in Table B. TNF-alpha inhibition data is set forth in Table B-1. OT-551 was used in both native form and in the form of nanoparticles. […] Other nitrogenous heterocyclic species of the invention are expected to show similar improvement in efficacy when disposed in nanoparticulate form.

[2] = system: Lipid peroxidation; assay: Lipid peroxidation inhibition (method of Ohkawa); assay type: biochemical; settings: for Lipid Peroxidation Inhibition, % Inhibition: 10 uM
[3] = system: bFGF-induced angiogenesis in the CAM model; assay: bFGF (FGF2)-stimulated CAM model; assay type: in vivo, chicken; settings: bFGF/FGF2 1 ug, 30 ug injected; for inhibition in vivo at 0.03 mg: Gallus gallus, read-out: % Inhibition ± SEM
Experimental: In vivo neovascularization was examined by the method previously described by Auerbach et al. (J. Dev. Biol. 41:391-394 (1974)). Ten-day old chicken embryos were purchased from Spafas, Inc. (Preston, Conn.) and were incubated at 37° C. with 55% relative humidity. In the dark, with the aid of a candling lamp, a small hole was punctured in the shell concealing the air sac with a hypodermic needle. A second hole was punctured in the shell on the broadside of the egg directly over an […] portion of the embryonic membrane, as observed during candling. An artificial air sac was created beneath the second hole by applying gentle vacuum to the first hole using a small rubber squeeze bulb. The vacuum caused the chorioallantoic membrane (CAM) to separate from the shell.
For inducing angiogenesis, sterile filter disks were saturated with bFGF (1 μg/ml) (Life Technologies, Gaithersburg, Md.) or other pro-angiogenesis factors and control disks were saturated with PBS without Calcium and Magnesium. Control disks were saturated with PBS without Calcium and Magnesium.
After 24-48 hr, 10-25 ul of test agent was injected intravenously or added topically into the CAM membrane. Eight-Ten eggs/treatment group were used.
The number of vessel branch points contained in a circular region equal to the area of a filter disk was counted for each section. Percent inhibition data are expressed as the quotient of the experimental value minus the negative control value divided by the difference between the positive control value and the negative control value. One image was counted in each CAM preparation, and findings from eight CAM preparations were analyzed for each treatment condition. In addition, each experiment was performed three times. The resulting angiogenesis index is the mean ±SEM (Standard Error of Measurement) of new branch points in each set of treatment. Statistical analysis of blood vessel branching patterns are performed by 1-way analysis of variance (ANOVA) comparing experimental with corresponding control groups. Statistical significance differences are assessed at P value of <0.05.
The CAM model protocol was modified to include stimulus with bFGF. The effect of injected OT 551 was assayed.
TP-H was applied to the CAM model study to determine its respective anti-angiogenesis effects according to the materials and methods provided in Example 1. Basic Fibroblast Growth Factor (bFGF) was used to induce angiogenesis in the CAM model.
Compounds were introduced via injection to the CAM model study to determine its respective anti-angiogenesis effects according to the materials and methods provided in Example 1. bFGF was used to induce angiogenesis in the CAM model.

[4] = system: Doxorubicin resistant SaOS2 cells; assay: Cancer cell viability (MTT) in the presence or absence of doxorubicin; assay type: cell-based, human; settings: compound 50 ug/mL, 3 days
[5] = system: Angiogenesis in CAM; assay: Neovascularization on the CAM (Inhibition of Angiogenesis in CAM); assay type: in vivo, chicken; settings: for inhibition in vivo at 0.03 mg: Gallus gallus; for inhibition in vivo at 0.03 mg / % inhibition of angiogenesis in CAM at 30 ug: 30 ug; for Inhibition of Angiogenesis in CAM, % Inhibition: 300 ug
Experimental: In vivo neovascularization was examined by the method previously described by Auerbach et al. (J. Dev. Biol. 41:391-394 (1974)). Ten-day old chicken embryos were purchased from Spafas, Inc. (Preston, Conn.) and were incubated at 37° C. with 55% relative humidity. In the dark, with the aid of a candling lamp, a small hole was punctured in the shell concealing the air sac with a hypodermic needle. A second hole was punctured in the shell on the broadside of the egg directly over an […] portion of the embryonic membrane, as observed during candling. An artificial air sac was created beneath the second hole by applying gentle vacuum to the first hole using a small rubber squeeze bulb. The vacuum caused the chorioallantoic membrane (CAM) to separate from the shell. A window, approximately 1.0 cm^2, was cut in the shell over the dropped CAM with the use of a small crafts grinding wheel (Dremel, Division of Emerson Electric Company Racine, Wis.). The window allowed direct access to the underlying CAM. A pro-angiogenic agent was added to induce new blood vessel branches on the CAM of 10-day old embryos. […] Louis, Mo.) in a solution (95% ethanol and water). The disks were subsequently air dried under sterile conditions. The disks were then suspended in PBS (Phosphate Buffered Saline) and placed on growing CAMs. […] For inducing angiogenesis, sterile filter disks were saturated with bFGF (1 μg/ml) (Life Technologies, Gaithersburg, Md.) or other pro-angiogenesis factors and control disks were saturated with PBS without Calcium and Magnesium. Control disks were saturated with PBS without Calcium and Magnesium. Using sterile forceps one filter/CAM was placed from the window. The window was sealed with Highland brand transparent tape. After 24-48 hr, 10-25 ul of test agent was injected intravenously or added topically into the CAM membrane. Eight-Ten eggs/treatment group were used. CAM tissue directly beneath filter disk was harvested from embryos treated 48 hours prior with compound or control. Tissues were washed three times with PBS. Sections were placed in a 35-mm petri dish (Nalge Nunc, Rochester, N.Y.) and examined under a SV6 stereomicroscope (Karl Zeiss, Thornwood, N.Y.) at 50× magnification. […] Digital images of CAM sections from Petri dish were collected using a 3-CCD color video camera system (Toshiba America, New York, N.Y.). These images were analyzed using Image-Pro Plus software (Media Cybernetics, Silver Spring, Md.). The number of branch points in blood vessels within the circular region superimposed to the area of a filter disk was counted for each section. […] Tissues were washed three times with PBS. Sections were placed in a 35-mm Petri dish (Nalge Nunc; Rochester, N.Y.) and were examined under a SV6 stereomicroscope (Karl Zeiss; Thornwood, N.Y.) at 50× magnification. Digital images of CAM sections adjacent to filters were collected using a 3-CCD color video camera system (Toshiba America; New York, N.Y.) and analyzed with the Image-Pro Plus software (Media Cybernetics; Silver Spring, Md.). The number of vessel branch points contained in a circular region equal to the area of a filter disk was counted for each section. Percent inhibition data are expressed as the quotient of the experimental value minus the negative control value divided by the difference between the positive control value and the negative control value. One image was counted in each CAM preparation, and findings from eight CAM preparations were analyzed for each treatment condition. In addition, each experiment was performed three times. The resulting angiogenesis index is the mean ±SEM (Standard Error of Measurement) of new branch points in each set of treatment. Statistical analysis of blood vessel branching patterns are performed by 1-way analysis of variance (ANOVA) comparing experimental with corresponding control groups.

[6] = system: Human whole blood clot formation
Experimental: TEG: Human whole blood (±drugs) was added to the cylindrical cuvette (“cup”). […] The cup oscillates 4°45′ ( 1/12 radian) in either direction every 4.5 seconds, with a 1-second mid-cycle stationary period, resulting in a frequency of 0.1 Hz and a maximal shear rate of 0.1 per second. The pin was suspended by a torsion wire that acts as a torque transducer. […] The torque experienced by the pin (relative to the oscillation of the cup) was plotted as a function of time (Forsythe, S. A. M. S. K. M. S. (2000): “Comparative In Vitro Efficacy of Different Platelet Glycoprotein IIb/IIIa Antagonists on Platelet-Mediated Clot Strength Induced by Tissue Factor With Use of Thromboelastography.” Arteriosclerosis, Thrombosis, and Vascular Biology 20: 1162).
(Data represent mean ±SD, n=6 (blood form normal healthy volunteers), *P<0.01 as compared to control)

[7] = Homo sapiens, THP-1, compound 10 uM, 5 ng/mL LPS, read-out: Mean Percent Inhibition of TNF-alpha using 5 ng/mL LPS
[8] = Homo sapiens, THP-1, read-out: TNFalpha IC50
[9] = TEG, human whole blood, Bevacizumab 1 ng/cup, Comp. 4 0 uM, *P<0.01 vs control

Molecule | inhibition at 10 µM [1, 7] [%] | IC50 [1, 8] [µM] | Mean OD (×10^−3), MTT viability ([4]; Dox. 10^−6 M (+)) | Mean OD (×10^−3), MTT viability ([4]; absence of Dox. (−)) | melting point | inhibition in vivo at 0.03 mg [5] [%] | also measured
CC1C(O)C(C)C(C)(C)N(O)C1(C)C.Cl (centres unmarked) [Compound 6, 2,2,3,5,6,6-Hexamethyl-piperidine-1,4-diol hydrogen chloride salt] | 54 ± 6 | 29.4 | 185.25 ×10^−3 | 367.00 ×10^−3 | 191.5 °C (dec.) |  | % Lipid Peroxidation inhibition (at 1 uM) ([2]; 1 uM): 70.5%; Lipid Peroxidation Inhibition, % Inhibition [2]: 89.0%; inhibition in vivo at 0.03 mg [3]: 40.4 ± 9.3%; Branch pts ± SEM [3]: 78.6 ± 7.3
CC1(C)CC(Oc2nsnc2OC2CC(C)(C)N(O)C(C)(C)C2)CC(C)(C)N1O [Compound 14, 1-hydroxyl-4-(4-(2,2,6,6-tetramethylpiperidin-1-hydroxyl-4-yloxy)-1,2,5-thiadiazol-3-yloxy)-2,2,6,6-tetramethylpiperidine bis-hydrogen chloride] |  |  |  |  |  | 95.2 | inhibition at 10 µM ([1]; Homo sapiens, THP-1, read-out: Mean Percent Inhibition of TNF-alpha using 5 ng/mL LPS): 63 ± 1%; IC50 ([1]; Homo sapiens, THP-1, read-out: TNFalpha IC50 (uM)): 11.4 µM
CC1(C)CC(Cl)CC(C)(C)N1O.Cl [Compound 21, 4-chloro-1-hydroxy-2,2,6,6-tetramethylpiperidine hydrogen chloride] |  | 21.7 | 99.25 ×10^−3 | 492.75 ×10^−3 | 201.8 °C (dec.) | 94.1 | 
CC(=O)NC1CC(C)(C)N(O)C(C)(C)C1.Cl [Compound 2, 1-hydroxy-4-acetamido-2,2,6,6-tetramethylpiperidine] | 64 ± 5 | 17 | 249.25 ×10^−3 | 496.33 ×10^−3 | 180.5 °C (dec.) |  | Lipid Peroxidation Inhibition, % Inhibition [2]: 81.0%; inhibition in vivo at 0.03 mg [3]: 76.4 ± 9.9%; Branch pts ± SEM [3]: 84.7 ± 11.1
O=C1O[C@H]([C@@H](O)CO)C(O)=C1O [Vitamin C, reference compound] |  |  |  |  |  |  | Inhibition of Angiogenesis in CAM, % Inhibition [5]: 15 ± 7%
Bevacizumab: a monoclonal antibody against vascular endothelial growth factor used to treat cancer by inhibiting angiogenesis [reference compound] |  |  |  |  |  |  | MA in comparison to native blood [6]: approximately six times larger MA; initiation of clot formation in comparison to native blood [6]: approximately two to three fold faster; Clot Strength - MA [6, 9]: 33.8 ± 5.6* mm; Time to Clot Initiation R [6, 9]: 7.8 ± 1.1* min
CC1(C)CC(NC(=O)N2CCOCC2)CC(C)(C)N1O.Cl [Compound 11, N-(2,2,6,6-tetramethylpiperidin-1-hydroxyl-4-yl)morpholine-4-carboxamide hydrogen chloride] | 24 ± 5 | 20.7 | 267.25 ×10^−3 | 470.25 ×10^−3 | 158.1 °C (dec.) |  | Lipid Peroxidation Inhibition, % Inhibition [2]: 82.7%; inhibition in vivo at 0.03 mg [3]: 71 ± 8.8%; Branch pts ± SEM [3]: 64.0 ± 5.1
CC1(C)CC(NC(=O)C2CC2)C(C)(C)N1O.Cl (centres unmarked) [Compound 38, N-(1-hydroxy-2,2,5,5-tetramethylpyrrolidin-3-yl)cyclopropanecarboxamide hydrogen chloride] |  | ≥ 100 | 378.50 ×10^−3 | 1202.75 ×10^−3 |  |  | % inhibition of angiogenesis in CAM at 30 ug [5]: 62.8
Vitamin E [reference compound] |  |  |  |  |  |  | Inhibition of Angiogenesis in CAM, % Inhibition [5]: 22 ± 6%
CC1(C)C=C(C(N)=O)C(C)(C)N1O [Compound 23, 2,5-dihydro-2,2,5,5-tetramethyl-1H-pyrrole-3-carboxamide-1-hydroxy] |  |  | 416.25 ×10^−3 | 1432.50 ×10^−3 |  |  | IC50 ([1]; read-out: TNFalpha IC50): 87.4 µM; % inhibition of angiogenesis in CAM at 30 ug [5]: 48.8
CC1(C)CC(Oc2nsnc2Cl)CC(C)(C)N1O [Compound 13, 4-(4-chloro-1,2,5-thiadiazol-3-yloxyl)-1-hydroxyl-2,2,6,6-tetramethylpiperidine hydrogen chloride] | 36 | 16.4 |  |  |  | 93.4 | 
CC1(C)CC(C#N)CC(C)(C)N1O.Cl [Compound 12, 4-cyano-1-hydroxyl-2,2,6,6-tetramethylpiperidine hydrogen chloride] | 35 | 21.5 | 287.25 ×10^−3 | 539.25 ×10^−3 | 186 °C (dec.) | 92.1 | 
